Experimental data reported in patent publication US6838436B1, “Inhibitors of proteasomal activity for stimulating bone growth” (Osteoscreen Inc., priority 1998, dated 2005).
Where two headings read alike, the source gives them in different places. Where a SMILES comes first, the peptide text is derived from it. [ ]: non-standard residue; d: D form. Nle = CCCC[C@H](N)C(=O)O

Tests used:
mouse BMP2 promoter = assay: High throughput screen (ABA assay): BMP2 promoter-luciferase reporter in 2T3-BMP-2-LUC osteoblast cells; assay type: cell-based; conditions: for EC50: Mus musculus, Osteoblast, read-out: Luciferase Activity (ED50-μM)
Source text: 1995, the entire contents of which are incorporated herein by reference. This assay is also described as a portion of a study of immortalized murine osteoblasts (derived from a mouse expressing a transgene composed of a BMP2 promoter driving expression of T-antigen) in Ghosh-Choudhery, N., et al., Endocrinology (1996) 137:331-39. In this study, the immortalized cells were stably transfected with a plasmid containing a luciferase reporter gene driven by a mouse BMP2 promoter (−2736/114 bp), and responded in a dose-dependent manner to recombinant human BMP2.
Briefly, the assay utilizes cells transformed permanently or transiently with constructs in which the promoter of a bone morphogenetic protein, specifically BMP2 or BMP4, is coupled to a reporter gene, typically luciferase. These transformed cells are then evaluated for the production of the reporter gene product; compounds that activate the BMP promoter will drive production of the reporter protein, which can be readily assayed. Many thousands of compounds have been subjected to this rapid screening technique, and only a very small percentage are able to elicit a level of expression of reporter gene 5-fold greater than that produced by vehicle. […] The active compounds (“BMP promoter-active compounds” or “active compounds”) are useful in promoting bone or cartilage growth, and thus in the treatment of vertebrates in need of bone or cartilage growth.
Thousands of compounds have been tested in the assay system set forth in U.S. Ser. No. 08/458,434, filed 2 Jun. 1995, and incorporated herein by reference. […] In this screen, the standard positive control was the compound 59-0008 (also denoted “OS8”), which is of the formula: [drawing 22]
In more detail, the 2T3-BMP-2-LUC cells, a stably transformed osteoblast cell line described in Ghosh-Choudhury et al. Endocrinology (1996) 137:331-39, referenced above, was employed. The cells were cultured using α-MEM, 10% FCS with 1% penicillin/streptomycin and 1% glutamine (“plating medium”), and were split 1:5 once per week. For the assay, the cells were resuspended in a plating medium containing 4% FCS, plated in microtiter plates at a concentration of 5×10^3 cells (in 50 μl)/well, and incubated for 24 hours at 37° C. in 5% CO2. To initiate the assay, 50 μl of the test compound or the control in DMSO was added at 2× concentration to each well, so that the final volume was 100 μl. The final serum concentration was 2% FCS, and the final DMSO concentration was 1%. Compound 59-0008 (10 μM) was used as a positive control.
The treated cells were incubated for 24 hours at 37° C. and 5% CO2. The medium was then removed, and the cells were rinsed three times with PBS. After removal of excess PBS, 25 μl of 1× cell culture lysing reagent (Promega #E153A) was added to each well and incubated for at least ten minutes. Optionally, the plates/samples could be frozen at this point. To each well was added 50 μl of luciferase substrate (Promega #E152A; 10 ml Promega luciferase assay buffer per 7 mg Promega luciferase assay substrate). Luminescence was measured on an automated 96-well luminometer, and was expressed as either picograms of luciferase activity per well or as picograms of luciferase activity per microgram of protein.
Accordingly, other tested compounds can be evaluated at various concentrations, and the results compared to the results obtained for 59-0008 at 10 μM (which value would be normalized to 100). Alternatively, the reactivity of a compound to be tested can be compared directly to a negative control containing no compound.

hair follicles = assay: Induction of anagen in hair follicles in vivo (Example 12); parameters: species or system C57 black mice
Procedure: Inhibitors of the proteasomal chymotrypsin-like activity were treated for their capacity to induce transit of hair follicles into anagen in vivo in C57 black mice eight weeks of age.

[1] = biological target: T1, 20S thermophila proteasome (Methanosarcina thermophila, UniProt Q9P992); assay: biochemical
T1 construct: purchased CalBiochem, San Diego, Calif
T1 sequence (Q9P992 10-210): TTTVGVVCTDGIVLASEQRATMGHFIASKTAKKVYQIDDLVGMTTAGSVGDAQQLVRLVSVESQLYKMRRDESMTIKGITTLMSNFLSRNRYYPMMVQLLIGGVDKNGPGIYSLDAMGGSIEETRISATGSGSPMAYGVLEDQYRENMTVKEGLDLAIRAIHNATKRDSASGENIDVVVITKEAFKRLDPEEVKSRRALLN
T1 sequence (Q59565 1-247 partner): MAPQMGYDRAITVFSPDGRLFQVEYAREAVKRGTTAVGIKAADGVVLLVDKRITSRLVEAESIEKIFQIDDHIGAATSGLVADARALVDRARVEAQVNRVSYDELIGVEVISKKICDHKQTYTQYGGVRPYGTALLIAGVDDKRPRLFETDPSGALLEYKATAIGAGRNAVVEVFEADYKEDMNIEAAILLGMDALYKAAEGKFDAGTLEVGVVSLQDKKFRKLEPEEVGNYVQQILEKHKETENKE
Procedure: The assay involves incubating the potential inhibitor with 20S thermophila proteasomes which, in purified form, are commercially available, with a fluorogenic peptide substrate. The presence of an inhibitor will reduce the amount of fluorescence generated by the action of the proteasome fraction on the fluorogenic peptide. This assay is described in further detail in Coux, O., et al., N Rev Biochem (1996) 65:801; Adams, J., et al., Cancer Res (1999) 59:2615; and Craiu, A., et al., J Biol Chem (1997) 272:13437. Further reports are set forth in Hilt, W., et al., Trans Biochem Sci (1996) 21:96; Peters, J., Trends Biochem Sci (1994) 19:377; Maupin-Furlow, J. A., et al., J Biol Chem (1995) 270:28617; and Jensen, T. J., et al., Cell (1995) 83:129. Fluorogenic substrates and purified proteasomes are available, for example, from CalBiochem, San Diego, Calif.
Purified 20S thermophila proteasomes and the fluorogenic peptide substrate Suc-Leu-Leu-Val-Tyr-AMC (SEQ ID NO:3) are available from CalBiochem, San Diego, Calif. Briefly, serial dilutions of the inhibitor to be tested were mixed with proteasome solution at a concentration of proteasome of 0.01 mg/ml. After 30 min incubation at 37° C., substrate solution at a final concentration of 25-30 μg/ml was added and the mixture incubated at 37° C. and then read at 15 min, 30 min, and 60 min in a Fluoroscan instrument. The percentage diminution in fluorescence in the presence as compared to the absence of inhibitor is then calculated.

proteasomal activity = conditions: cited from earlier work
neonatal mouse calvaria = assay: Neonatal mouse calvaria assay (in vitro / ex vivo) for bone formation; assay type: cell-based, ICR Swiss white mouse; conditions: for EC50: Mus musculus, read-out: Bone Formation (ED50-μM)
Procedure: An assay for bone resorption or bone formation is similar to that described by Gowen M. & Mundy G., J Immunol (1986) 136:2478-82. Briefly, four days after birth, the front and parietal bones of ICR Swiss white mouse pups are removed by microdissection and split along the sagittal suture. In an assay for resorption, the bones are incubated in BGJb medium (Irvine Scientific, Santa Ana, Calif.) plus 0.02% (or lower concentration) β-methylcyclodextrin, wherein the medium also contains test or control substances. The medium used when the assay is conducted to assess bone formation is Fitton and Jackson Modified BGJ Medium (Sigma) supplemented with 6 μg/ml insulin, 6 μg/ml transferrin, 6 ng/ml selenous acid, calcium and phosphate concentrations of 1.25 and 3.0 mM, respectively, and ascorbic acid to a concentration of 100 μg/ml is added every two days. The incubation is conducted at 37° C. in a humidified atmosphere of 5% CO2 and 95% air for 96 hours.
Following this, the bones are removed from the incubation media and fixed in 10% buffered formalin for 24-48 hours, decalcified in 14% EDTA for 1 week, processed through graded alcohols; and embedded in paraffin wax. Three […] sections of the calvaria are prepared. Representative sections are selected for histomorphometric assessment of bone formation or bone resorption. Bone changes are measured on sections cut 200 μm apart. Osteoblasts and osteoclasts are identified by their distinctive morphology.
Selected compounds and appropriate controls were assayed in vitro (ex vivo) for bone formation activity (described above in “Techniques for Neonatal Mouse Calvaria Assay (in vitro)). Histomorphometrical assessments of ex vivo calvaria were carried out using an OsteoMetrics bone morphometry measurement program, according to the manufacturer's instructions. Measurements were determined using either a 10- or 20-fold objective with a standard point counting eyepiece graticule.
New bone formation was determined (using a 10× objective) by measuring the new bone area formed in one field in 3 representative sections of each bone (4 bones per group). Each measurement was carried out ½ field distance from the end of the suture. Both total bone and old bone area were measured. Data were expressed as new bone area in μm^2.
Osteoblast numbers are determined by point counting. The number of osteoblast cells lining the bone surface on both sides of the bone are counted in one field using a 20× objective. Data are expressed as osteoblast numbers/mm of bone surface. […]

[2] = system: hair follicles of skin explants; assay: Cultured skin explants from 5 day old mice, hair follicle diameter and elongation (Example 11); assay type: cell-based, C3H/HeS1c mice; conditions: 10 μM; 72 hours
Procedure: Cultured skin explants from 5 day old mice cultured for 72 hours were treated with proteasome inhibitors, non-proteasomal proteases and non-proteasomal inhibitors of NF-κB and effects on hair follicle diameter and follicle elongation were determined according to the method of Kamiya, T., et al., J Derm Sci (1998) 17:54-60. Skin slices from the dorsal skin of 5 day old C3H/HeS1c mice were cultured in 1 ml of αMEM and 0.1% BSA for 72 hours and then assessed for changes in hair follicle diameter and hair elongation under an inverted microscope, using image analysis. […] Thus, the chymotrypsin-like activity of the proteasome is the catalytic component of the proteasome that is responsible for the effects of these compounds on hair follicle differentiation and hair growth. Only proteasome inhibitors had discernable effects on these parameters.

[3] = read-out: Proteasome Activity (ED50-μM)

c1ccc(N=NC2=NNc3ccccc3S2)cc1 [59-0008, 3-phenylazo-1H-4,1,2-benzothiadiazine]
concentration of maximal reactivity (mouse BMP2 promoter): 3 to 10 µM

CCCC[C@@H](C=O)NC(=O)[C@H](CC(C)C)NC(=O)[C@H](CC(C)C)NC(C)=O [ALLN, N-Acetyl-Leu-Leu-Nle-CHO] (Ac-Leu-Leu-[Nle]-aldehyde)
effect on hair follicles (hair follicles; dose not given): had no effect on hair follicles
EC50 (mouse BMP2 promoter): 10 µM
EC50 [1, 3]: 1.5 µM
effects on proteasomal activity (proteasomal activity): no effects on proteasomal activity

COc1cc(CNC(=O)CCCC/C=C/C(C)C)ccc1O [Capsaicin]
activity in the ABA assay compared with proteasome inhibitors (mouse BMP2 promoter): less active
response in the high throughput luciferase screen (mouse BMP2 promoter): do not give promising responses
new bone formation in the in vitro calvarial assay (neonatal mouse calvaria): appeared negative
EC50 [1]: 30 µM

CN1C(=O)C23CC4=CC=C[C@H](O)C4N2C(=O)C1(CO)SS3 (stereo partly shown) [Gliotoxin]
response in the high throughput luciferase screen (mouse BMP2 promoter): do not give promising responses
new bone formation in the in vitro calvarial assay (neonatal mouse calvaria): did demonstrate the ability to stimulate bone growth
EC50 (neonatal mouse calvaria): 10 µM

CC(C)C[C@H](NC(=O)[C@H](CC(C)C)NC(=O)[C@H](CC(C)C)NC(=O)OCc1ccccc1)B(O)O [MG262]
EC50 (mouse BMP2 promoter): 0.1 µM
EC50 (neonatal mouse calvaria; calvarial assay in vitro): 0.1 µM
EC50 [1, 3]: 0.07 µM

CSCCC(C=O)NC(=O)C(CC(C)C)NC(=O)C(CC(C)C)NC(C)=O (stereo not drawn) [N-Acetyl-Leu-Leu-Meth-CHO, N-Acetyl-Leu-Leu-Met-CHO] (Ac-Leu-Leu-Met-aldehyde; configuration not given here)
EC50 [1]: 4 µM

S=C(S)N1CCCC1 [PDTC, 1-pyrrolidinecarbodithioic acid]
effect on hair follicles (hair follicles; dose not given): had no effect on hair follicles
response in the high throughput luciferase screen (mouse BMP2 promoter): do not give promising responses
new bone formation in the in vitro calvarial assay (neonatal mouse calvaria): appeared negative
effects on proteasomal activity (proteasomal activity): no effects on proteasomal activity
effect on follicle growth [2]: did not significantly affect follicle growth

O=C(NC1=CC(=O)c2ccccc2C1=O)c1ccccc1 [PPM-18, 2-benzoylamino-1,4-naphthoguinone]
effect on hair follicles (hair follicles; dose not given): had no effect on hair follicles
effects on proteasomal activity (proteasomal activity): no effects on proteasomal activity

CC(=O)CCCCn1c(=O)c2c(ncn2C)n(C)c1=O [PTX, pentoxyfilline]
lowest concentration enhancing new bone formation (as low as) (neonatal mouse calvaria): 0.1 μm
new bone formation in the in vitro calvarial assay (neonatal mouse calvaria): active
increase of new bone area (neonatal mouse calvaria; 100 μm): ~3 times that of control
enhancement of new bone area over control (neonatal mouse calvaria; concentration of 10 μm): over 100%

COc1cc(/C=C/C(=O)CC(=O)/C=C/c2ccc(O)c(OC)c2)ccc1O [curcumin]
activity in the ABA assay compared with proteasome inhibitors (mouse BMP2 promoter): less active

CC[C@H](C)C(=O)O[C@H]1C[C@@H](C)C=C2C=C[C@H](C)[C@H](CC[C@@H]3C[C@@H](O)CC(=O)O3)[C@H]21 [lovastatin]
effect on hair follicles (hair follicles; injected locally into the subcutaneous tissue in sufficient concentrations to cause local periosteal bone formation): had no effect on hair follicles
effects on proteasomal activity (proteasomal activity): no effects on proteasomal activity

C=C(C)[C@]12C[C@@H](C)[C@@]34O[C@](Cc5ccccc5)(O[C@@H]1[C@@H]3C=C(COC(=O)Cc1ccc(O)c(OC)c1)C[C@]1(O)C(=O)C(C)=C[C@@H]41)O2 [resiniferatoxin]
activity in the ABA assay compared with proteasome inhibitors (mouse BMP2 promoter): less active

CC[C@H](CO)Nc1nc(NCc2ccccc2)c2ncn(C(C)C)c2n1 [roscovitine]
response in the high throughput luciferase screen (mouse BMP2 promoter): do not give promising responses
new bone formation in the in vitro calvarial assay (neonatal mouse calvaria): appeared negative
effect on follicle growth [2]: did not significantly affect follicle growth
